According to patent publication US4771060A, “Novel skin-whitening agent” (Teikoku Seiyaku Kabushiki Kaisha, priority 1986, dated 1988):

How the values were obtained:
[1] = system: surface melanism in yellow goldfish; assay: Preventive effect on surface melanism in yellow goldfish; type: in vivo, goldfish (Ryukins); conditions: then 0.9% NaCl 12 days, 12th day, 5 fish, control 100%
Protocol: (§1) Ryukins [a kind of goldfish (weighing 3-5 g, one group: 5 fish)] were fed in water containing 1 μg/l or 10 μg/l of pionine (No. 1 compound in the above Preparations) for 20 days. The goldfish were then transferred into a water bath filled with water containing 0.9% by weight of NaCl in order to induce melanism and fed for 12 days. As a control group, the fish were fed likewise except no active compound was used. The extent of surface melanism and the activity of tyrosinase in the group administered with pionine were compared with those of the control group.

[2] = system: tyrosinase; assay: Determination of tyrosinase activity in scales of treated goldfish; type: in vivo, goldfish (Ryukins); conditions: scales on 12th day, control 0.06
Protocol: as §1
As samples to be tested, scales were picked from goldfish of each of groups on 12th day. The samples were each homogenized with 1M phosphate buffer (pH 6.8) and centrifuged. As to the supernatant, tyrosinase was determined by a colorimetry according to the procedure of N. H. Horowitz and Pomerantz (cf. Method in Enzymology, XVIIA, 615-626).

[3] = system: surface melanism in yellow goldfish; assay: Therapeutic effect on surface melanism in yellow goldfish; type: in vivo, goldfish (Ryukins); conditions: for goldfish returned to their original yellow surface color: after 12 weeks, control 0%
Protocol: Ryukins (weighing 3-5 g) were fed in a 0.9% NaCl aqueous solution for 12 days to induce surface melanism. The goldfish were grouped into five fish each. In two experiment groups, the fish were fed in a water bath for 12 weeks, during which pionine was add in an amount of 1 μg/l and 10 μg/l, respectively, three times per week. In the control group, the fish were fed in pure water. The recovery from surface melanism of the experiment groups was compared with that of control group.

[4] = system: Black popeyed goldfish; assay: Action in normal black-goldfish; type: in vivo; conditions: 10 μg/l three times per week, after 12 weeks
Protocol: Black popeyed goldfish (each group: 5 fish) were fed in a water bath. In experimental group, pionine was added to the water bath in a concentration of 10 μg/l, three times per week. In the control group, no pionine was added.

[5] = system: tyrosinase derived from mushroom; assay: Direct effect on tyrosinase activity (L-DOPA substrate); type: biochemical
Protocol: The direct effect of pionine to tyrosinase activity was studied. 0.1 ml of a solution of pionine having various concentrations was mixed with 0.1 ml of 290 unit/ml solution of tyrosinase derived from mushroom (Sigma). […]

[6] = system: yellow goldfish; assay: Toxicity in yellow goldfish; type: in vivo; conditions: 5 mg/l in water for three days, ten yellow goldfish
[7] = Acute toxicity, oral, rats; conditions: rat, in vivo, suspension in 0.5% sodium carboxymethylcellulose, 7 days
Protocol: A suspension of pionine in a 0.5% sodium carboxymethylcellulose solution was orally administered to Wistar rats (weighing about 130 g, one group: ten animal) with a stomach sonde. The number of dead rats were counted for 7 days, and LD50 (g/kg) was calculated by van der Werden's method. […] Thus, it is clear that pionine is a compound having an extremely wide safety range, taking into account the above experimental results that it is effective in a concentration of 10 μg/l for preventing and treating melanism of goldfish.

[8] = system: stains (chloasma) and pigmentations induced by inflammation; assay: Clinical test, oral pionine; type: in vivo, human; set-up: key to Findings on skin: -1: deepened; 0: not changed; +1: faded; +2: completely disappeared
Protocol: A hundred μg of pionine was orally administered to each of three patients having stains (chloasma) and each of three patients having pigmentations induced by inflammation, once a day when the patients were hungry. This test was continued for 6 months. The effect of pionine was evaluated and classified into four classes by the degree of color as follows:
-1: deepened, 0: not changed, +1: faded,
+2: completely disappeared.
Evaluation by the patients themselves is also mentioned therein. Meanwhile, a patch test as to known cosmetics which were used by the patients was made for all patients before the clinical test, and if the result was positive (i.e. the known cosmetics are […]), the use of the cosmetics was prohibited.

CCCCCCCN1C(C)=CSC1=Cc1scc(C)[n+]1CCCCCCC [pionine, 4,4'-dimethyl-3,3'-di-n-heptyl-2,2'-monomethinethiazolocyanine iodide]
fish with surface melanism observed ([1]; 1 μg/l in water for 20 days): 40% | fish with surface melanism observed ([1]; 10 μg/l in water for 20 days): none | tyrosinase activity, ΔOD at 475 nm/mg protein/30 min ([2]; 1 μg/l group): 0.05 /mg protein/30 min | tyrosinase activity, ΔOD at 475 nm/mg protein/30 min ([2]; 10 μg/l group): 0.02 /mg protein/30 min | goldfish returned to their original yellow surface color ([3]; 1 μg/l three times per week): 40% | goldfish returned to their original yellow surface color ([3]; 10 μg/l three times per week): 80% | recovery from surface melanism ([3]; 1 and 10 μg/l groups, within three weeks): not observed | blackness of normal black goldfish versus control [4]: no differences were observed | effect on tyrosinase activity ([5]; addition of 5×10^-2 to 10^-5 % of pionine): did not affect | tyrosinase inhibitory activity ([5]; direct effect, summary statement): no tyrosinase inhibitory activity | ΔOD (at 475 nm) ([5]; pionine 5 × 10^-2 %, 2 min., control 0.250): 0.248 | ΔOD (at 475 nm) ([5]; pionine 5 × 10^-2 %, 5 min., control 0.540): 0.540 | ΔOD (at 475 nm) ([5]; pionine 5 × 10^-2 %, 10 min., control 0.782): 0.786 | ΔOD (at 475 nm) ([5]; pionine 5 × 10^-3 %, 2 min., control 0.250): 0.252 | ΔOD (at 475 nm) ([5]; pionine 5 × 10^-3 %, 5 min., control 0.540): 0.544 | ΔOD (at 475 nm) ([5]; pionine 5 × 10^-3 %, 10 min., control 0.782): 0.780 | ΔOD (at 475 nm) ([5]; pionine 5 × 10^-4 %, 2 min., control 0.250): 0.252 | ΔOD (at 475 nm) ([5]; pionine 5 × 10^-4 %, 5 min., control 0.540): 0.540 | ΔOD (at 475 nm) ([5]; pionine 5 × 10^-4 %, 10 min., control 0.782): 0.784 | ΔOD (at 475 nm) ([5]; pionine 5 × 10^-5 %, 2 min., control 0.250): 0.250 | ΔOD (at 475 nm) ([5]; pionine 5 × 10^-5 %, 5 min., control 0.540): 0.538 | ΔOD (at 475 nm) ([5]; pionine 5 × 10^-5 %, 10 min., control 0.782): 0.780 | abnormality [6]: no abnormality was observed | death of fish [6]: no fish was died | LD50 at 168 h ([7]; female Wistar rats): 500 mg/kg | LD50 at 168 h ([7]; male Wistar rats): 470 mg/kg | patients with positive effect ([8]; 5/6 patients, 100 μg orally once a day, 6 months): 83% | Side effect ([8]; Run No. 1, 100 μg orally once a day): No | Evaluation by patients ([8]; Run No. 1, Chloasma): effective | Findings on skin ([8]; Run No. 1, Chloasma, 100 μg orally once a day, at 4th month): +2 | Evaluation by patients ([8]; Run No. 2, Chloasma): not effective | Findings on skin ([8]; Run No. 2, Chloasma, 100 μg orally once a day, at 6th month): 0 | Evaluation by patients ([8]; Run No. 3, Chloasma): effective | Findings on skin ([8]; Run No. 3, Chloasma, 100 μg orally once a day, at 5th month): +2 | Findings on skin ([8]; Run No. 4, Pigmentation after inflammation, 100 μg orally once a day, at 3rd month): +2 | Findings on skin ([8]; Run No. 5, Pigmentation after inflammation, 100 μg orally once a day, at 5th month): +2 | Findings on skin ([8]; Run No. 6, Pigmentation after inflammation, 100 μg orally once a day, at 3rd month): +1 | side effect in all patients ([8]; six patients, 100 μg orally once a day, 6 months): no side effect was observed
